Assay [1] relates to rat caudal arterial smooth muscle (RTA). Description: Calyculin A-induced contraction of rat caudal arterial smooth muscle (RTA) strips. On the procedure:
Tissue preparation and Force Measurement for RTA smooth muscle: Caudal arteries were removed from male Sprague-Dawley rats (300-350 g) that had been anesthetized and euthanized according to protocols approved by the University of Calgary Animal Care and Use Committee. The arteries were cleaned of excess adventitia, de-endothelialized and cut into helical strips (1.5 mm×6 mm). Muscle strips were mounted on a Grass isometric force transducer (FT03C), and force was recorded. Intact tissues were treated with calyculin A (CLa, […]). At selected sampling points, muscle strips were flash-frozen in 10% (w/v) TCA, 10 mM DTT in acetone followed by 3×10 s washes in 10 mM DTT in acetone. Tissues were then lyophilized overnight. Protein was extracted from each arterial strip by incubation (16 h, 5° C.) in 0.5 mL of SDS-PAGE sample buffer.
In this case, calyculin A (CLa, 10^−7M)-induced contractions were used since inhibition of myosin phosphatase activity in RTA unmasks endogenous Ca^2+-independent LC20 kinase activities, including ZIPK. Experiments were performed with addition of inhibitors for ROK (HA-1152, 10^−6 M; GSK429286A, 10^−5M) in combination with HS-38. Combining ROK and ZIPK inhibitors had no effect on Ca^2+-sensitization (force generation or downstream ZIPK target phosphorylation).
Data were collected for RTA smooth muscle contraction in the presence and absence of HS-38, including measurements of contractile force development, and the concentration dependency of these effects. […] The t1/2 max value is defined as the time required for contractile force to reach 50% of maximal tone.
The latency period, i.e. the time from addition of calyculin A to the onset of contraction, and the half-time from the initiation of contraction to the plateau of the contractile response, were determined, in addition to the t1/2 values (the half-time from addition of calyculin A to the plateau of the contractile response) determined previously, in the absence and presence of HS-38. […] On the other hand, the steady-state level of force induced by calyculin A was unaffected by ZIPK inhibition. The results support the ability of HS38 to suppress the initiation and rate of contractile tone without altering the total force potential of the muscle.

Another assay has as its target T1, IRAK4 (Homo sapiens, UniProt Q9NWZ3).
T1 sequence (Q9NWZ3 1-460): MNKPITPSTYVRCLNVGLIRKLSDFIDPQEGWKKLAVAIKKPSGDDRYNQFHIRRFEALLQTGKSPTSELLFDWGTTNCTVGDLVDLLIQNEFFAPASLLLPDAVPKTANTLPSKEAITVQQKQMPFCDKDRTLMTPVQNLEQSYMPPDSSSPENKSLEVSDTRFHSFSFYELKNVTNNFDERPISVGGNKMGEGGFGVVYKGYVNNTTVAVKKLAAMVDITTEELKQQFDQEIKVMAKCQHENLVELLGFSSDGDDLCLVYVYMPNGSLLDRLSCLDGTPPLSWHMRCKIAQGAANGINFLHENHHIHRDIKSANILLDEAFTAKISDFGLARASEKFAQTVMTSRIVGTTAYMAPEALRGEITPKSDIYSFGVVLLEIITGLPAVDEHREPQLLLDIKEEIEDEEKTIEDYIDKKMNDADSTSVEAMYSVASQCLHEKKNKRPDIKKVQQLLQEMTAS
The assay can be described thus: 33P-ATP filter-binding kinase assay.

A further assay concerns LC20 monophosphorylation. Also on record: species or system rat.
For another assay, the target named is T2, DYRK2 (Homo sapiens, UniProt Q92630).
T2 sequence (Q92630 1-601): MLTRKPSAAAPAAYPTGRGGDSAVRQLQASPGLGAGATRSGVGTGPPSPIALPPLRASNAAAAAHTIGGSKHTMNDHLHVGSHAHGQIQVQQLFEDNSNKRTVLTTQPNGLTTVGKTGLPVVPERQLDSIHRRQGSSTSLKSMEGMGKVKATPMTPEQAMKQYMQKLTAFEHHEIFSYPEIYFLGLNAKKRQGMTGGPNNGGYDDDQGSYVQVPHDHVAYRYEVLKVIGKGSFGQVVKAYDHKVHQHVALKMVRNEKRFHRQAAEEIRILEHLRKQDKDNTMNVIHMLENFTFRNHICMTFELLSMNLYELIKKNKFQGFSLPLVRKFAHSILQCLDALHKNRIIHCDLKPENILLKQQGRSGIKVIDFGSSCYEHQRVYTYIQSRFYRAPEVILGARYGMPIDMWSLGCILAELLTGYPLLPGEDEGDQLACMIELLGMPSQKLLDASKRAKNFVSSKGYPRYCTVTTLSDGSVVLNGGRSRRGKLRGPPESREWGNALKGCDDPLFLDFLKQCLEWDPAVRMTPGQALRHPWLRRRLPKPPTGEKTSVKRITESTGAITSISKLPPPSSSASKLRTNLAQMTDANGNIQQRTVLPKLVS
Description: 33P-ATP filter-binding kinase assay.

In the next assay the target is Src (Homo sapiens, UniProt P12931). The assay can be described thus: 33P-ATP filter-binding kinase assay (kinome profile). The format is biochemical. Particulars: 10 μM HS38.
Sequence of Src (P12931 whole entry): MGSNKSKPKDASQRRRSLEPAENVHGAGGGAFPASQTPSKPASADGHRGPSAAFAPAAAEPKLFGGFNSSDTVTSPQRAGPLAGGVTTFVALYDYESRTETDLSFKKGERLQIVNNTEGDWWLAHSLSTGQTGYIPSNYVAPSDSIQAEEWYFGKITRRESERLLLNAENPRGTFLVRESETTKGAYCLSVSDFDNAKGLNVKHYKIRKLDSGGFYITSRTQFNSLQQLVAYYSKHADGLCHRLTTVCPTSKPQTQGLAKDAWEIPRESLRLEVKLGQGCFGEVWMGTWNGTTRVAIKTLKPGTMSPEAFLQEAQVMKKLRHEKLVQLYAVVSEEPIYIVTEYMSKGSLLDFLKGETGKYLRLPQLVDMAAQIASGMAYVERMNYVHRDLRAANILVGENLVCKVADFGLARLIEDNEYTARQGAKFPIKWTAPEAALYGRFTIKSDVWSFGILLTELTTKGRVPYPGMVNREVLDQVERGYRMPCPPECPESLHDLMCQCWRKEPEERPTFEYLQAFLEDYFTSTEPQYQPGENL
Where [2] appears, read: read-out: % Activity (10 μM HS38).

Each structure is given as a SMILES string.

Broadly, the IC50 is the concentration that inhibits the measured activity by half. Low readings indicate inhibition by little substance, high ones a need for much substance. As a reminder, the inhibition is the change of the read-out against control, counted positive when it falls. High values mean a strong effect, low ones a weak effect. With `CC(Sc1nc2c(cnn2-c2cccc(Cl)c2)c(=O)[nH]1)C(N)=O` (centres unmarked) [HS38], the “contractile force during the Ca2+ sensitization process” value in assay [1] (calyculin A) was “concentration-dependent attenuation”. In assay [1] (calyculin A 10^−7 M, increasing concentrations of HS-38), the “t1/2max; time to reach 50% of maximal contractile force” value was “concentration-dependent increases”. In assay [1] (calyculin A with HS-38, n = 28, mean ± SEM), the “Latency (s)” value is given as “*654.7 ± 60.6 s”. Also, the “% KCl contraction” value in assay [1] (steady-state force, calyculin A with HS-38, n = 28, mean ± SEM) is given as “**161.7 ± 8.4%”. For the same compound, on IRAK4, the “fold less potent than against DAPK1 and PIM3” value is given as around 10 fold. Further, the IC50 on IRAK4 (mean ± S.D., n = 2) came out at 1400 ± 400 nM; at DYRK2 (mean ± S.D., n = 2), 1800 ± 600 nM. In addition, the values for the activity at 10 µM at IRAK4 (setting [2]) and on DYRK2 (setting [2]) were 20% and 21%, respectively. Also, the “levels of LC20 monophosphorylation induced by KCl and Ang II” value with LC20 monophosphorylation is reported as “could attenuate”. In addition, 10 µM produced 0% inhibition at Src.

(Values after patent publication US11999737B2, “Kinase inhibitors and related methods of use” (Duke University, priority 2014, dated 2024).)
